The compounds below were run against CDK2 (UniProt P24941) (assay: Enzyme Assay).

Q: Which IC50 does the source give for Clc1ccc(Nc2cncc(Cl)n2)nc1 here?
A: 8 µM

Q: For Clc1cncc(NC2CCCCC2)n1, which IC50 is on record?
A: 27 µM

Q: How did the IC50 turn out when Oc1cccc(Nc2cncc(Cl)n2)c1 was run?
A: 6 µM

Q: Which IC50 does the source give for Clc1cncc(NC(c2ccccc2)c2ccccc2)n1 here?
A: 23 µM

Q: For CSc1cncc(Nc2ccccc2)n1, which IC50 is on record?
A: 3 µM

Q: Which IC50 does the source give for Clc1cncc(Nc2ccccn2)n1 here?
A: 17 µM

Q: Clc1cncc(NC2CCCC2)n1 was tested. Which IC50 did it give?
A: 52 µM

Q: For Clc1cncc(NCc2ccc(Cl)s2)n1, which IC50 is on record?
A: 32 µM

Q: How did the IC50 turn out when NCCCN(c1cncc(Cl)n1)C1CCCCC1 was run?
A: 4 µM

Q: How did the IC50 turn out when O=c1[nH]c2ccccc2n1-c1cncc(Cl)n1 was run?
A: 10 µM

Q: Clc1cncc(NC[C@H]2CCCN2)n1 was tested. Which IC50 did it give?
A: 5 µM

Q: c1cn(-c2cncc(-n3ccnc3)n2)cn1 was tested. Which IC50 did it give?
A: 105 µM

Q: Which IC50 does the source give for Cc1cc2cc(CNc3cncc(Cl)n3)ccc2[nH]1 here?
A: 14 µM

Q: How did the IC50 turn out when CC(=O)Nc1ccc(Nc2cncc(Cl)n2)cc1 was run?
A: 15 µM

Q: With Fc1ccc(Nc2cncc(Cl)n2)cc1 as the compound, how does the IC50 read?
A: 16 µM

Q: How did the IC50 turn out when CC(C)CNc1cncc(Cl)n1 was run?
A: 105 µM

Q: How did the IC50 turn out when Clc1cncc(NCCNc2cncc(Cl)n2)n1 was run?
A: 43 µM

Q: Which IC50 does the source give for Oc1ccc(Nc2cncc(Cl)n2)cc1 here?
A: 24 µM

Q: CC(C)c1nccn1-c1cncc(Nc2ccccc2)n1 was tested. Which IC50 did it give?
A: 12 µM

Q: With Clc1cncc(N2CCc3ccccc3C2)n1 as the compound, how does the IC50 read?
A: 98 µM

Q: With O[C@@H]1CCCC[C@H]1CN(c1cncc(Cl)n1)C1CCCCC1 as the compound, how does the IC50 read?
A: 12 µM

Q: For FC(F)(F)COc1cncc(Nc2ccccc2)n1, which IC50 is on record?
A: 17 µM

Q: CC(C)(C)c1cc(N)n(-c2cncc(Cl)n2)n1 was tested. Which IC50 did it give?
A: 147 µM

Q: How did the IC50 turn out when Clc1cncc(NCc2cc(Oc3cncc(Cl)n3)no2)n1 was run?
A: 40 µM

Q: Which IC50 does the source give for OCCN(c1cncc(Cl)n1)C1CCCCC1 here?
A: 54 µM

Q: How did the IC50 turn out when NC(=O)c1sccc1Nc1cncc(Cl)n1 was run?
A: 9 µM

Q: With NS(=O)(=O)CCNc1cncc(Cl)n1 as the compound, how does the IC50 read?
A: 60 µM

Q: For Clc1cncc(N2CCN(c3ccccc3)CC2)n1, which IC50 is on record?
A: 102 µM

Q: How did the IC50 turn out when Clc1cncc(Nc2ccccc2)n1 was run?
A: 9 µM

Q: How did the IC50 turn out when Clc1cncc(-n2cnc3ccccc32)n1 was run?
A: 35 µM

Q: With O=C(O)c1ccc(Nc2cncc(Cl)n2)nc1 as the compound, how does the IC50 read?
A: 68 µM

Q: For Clc1cncc(NCCc2c[nH]cn2)n1, which IC50 is on record?
A: 73 µM

Q: Which IC50 does the source give for c1ccc(Nc2cncc(-n3ccnc3)n2)cc1 here?
A: 5.5 µM

Q: Which IC50 does the source give for NS(=O)(=O)c1cccc(Nc2cncc(Cl)n2)c1 here?
A: 7 µM

Q: How did the IC50 turn out when Clc1cncc(-n2cccn2)n1 was run?
A: 82 µM

Q: With CCOC(=O)c1ccc(CNc2cncc(Cl)n2)o1 as the compound, how does the IC50 read?
A: 36 µM

Q: How did the IC50 turn out when Clc1cncc(N(Cc2ccccc2)C2CCCCC2)n1 was run?
A: 64 µM

Q: With Clc1cncc(Nc2cccnc2)n1 as the compound, how does the IC50 read?
A: 27 µM

Q: Cc1cc(Nc2cncc(Cl)n2)[nH]n1 was tested. Which IC50 did it give?
A: 49 µM

Reference: the Kinase Knowledgebase extract (Sharma et al. 2016)
